In patent US4423039A, “Disaggregated solutions of polypeptides, their preparation and use” (The Hospital for Sick Children, priority 1980, dated 1983):

Legend:
[1] = molecular target: T1, zinc insulin crystals (Sus scrofa, UniProt P01315); test: dissolution times of zinc insulin crystals exposed to test solutions (microscope slide assay); assay type: physicochemical, pork
T1 construct: measures the dissolution times of zinc insulin crystals
Method: (§1) The test involved transferring pork insulin crystals to a clean microscope slide using the tip of a 25 G needle so that 10 to 30 crystals were distributed in the field of view. A 25 μl aliquot of the test solution was pipetted to form a small droplet which covered the crystals. […] The pH's of the test solutions were measured and the former were adjusted where appropiate to pH 7.5 using 1 N NaOH or 1 N HCl.

[2] = molecular target: glucagon (Homo sapiens, UniProt P01275); test: dissolution of glucagon crystals in test solutions (tested as for insulin); assay type: physicochemical; conditions: 150 mmol solution (pH 7.5) in distilled water
Chain of glucagon (P01275 53-81 limits assumed, species assumed): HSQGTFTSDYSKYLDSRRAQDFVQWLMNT
Method: as §1

[3] = molecular target: Neutral pork insulin (Sus scrofa, UniProt P01315); conditions: 2.5, 25, 250 and 2,500 mmolar; 5 U/ml neutral pork insulin, 0.1 g copper per 10 ml, shaken at 37° C., pH 7.5, triplicate
Chain of Neutral pork insulin (P01315 25-54 limits assumed): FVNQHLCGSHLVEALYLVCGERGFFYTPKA
Chain of Neutral pork insulin (P01315 88-108 limits assumed): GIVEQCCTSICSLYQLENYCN
Method: Biostatic water was used as the diluent. Neutral pork insulin was added to each to give a final concentration of 5 U/ml. To each sterile 10 ml vial 0.1 g of copper was added. Control vials were prepared exactly as above but no bicarbonate was added. The vials were aggitated on an Eberback shaker at 37° C. The experiment was run in triplicate at pH 7.5.

[4] = test solution 150 mmol/l, pH 7.5, 25 μl droplet on pork zinc insulin crystals

T1 sequence (P01315 25-54 limits assumed): as the sequence (P01315 25-54 limits assumed) above

Row | Structure (SMILES) | fraction of insulin crystals dissolved at 300 sec ([1]; 25 mmol/l, at 300 sec) [%] | Dissolution Time ± SEM ([1]; test solution 25 mmol/l, pH 7.5) [s] | Dissolution Time ± SEM [1, 4] [s] | dissolution time of glucagon [2] [s] | time vials remained clear (no aggregation) to date [3] [days]
1 | NC(N)=O [Urea] | 20 | – | – | – | –
2 | O=C([O-])O.[Na+] [Sodium Bicarbonate] | – | 360 ± 20 | 50 ± 5 | 45 ± 12 | ≥ 35
3 | O=CO [Formic Acid] | – | – | > 1200 | – | –
4 | CC(O)C(=O)O (stereo not shown) [Lactic Acid] | – | – | > 1200 | – | –
